From ChEMBL document CHEMBL1151558, “An efficient synthesis and biological activities of 19-nor-17-hydroxy-17-trifluoromethyl-4-estren-3-one and its analogs” (Bioorg Med Chem Lett, 1995)

Tests used:
[1] = biological target: T1, Progesterone receptor (Rattus norvegicus) (UniProt Q63449); assay: Binding affinity for cytosolic progesterone receptor (PRc) of rat uterus compared to RU-486
T1 sequence (whole entry): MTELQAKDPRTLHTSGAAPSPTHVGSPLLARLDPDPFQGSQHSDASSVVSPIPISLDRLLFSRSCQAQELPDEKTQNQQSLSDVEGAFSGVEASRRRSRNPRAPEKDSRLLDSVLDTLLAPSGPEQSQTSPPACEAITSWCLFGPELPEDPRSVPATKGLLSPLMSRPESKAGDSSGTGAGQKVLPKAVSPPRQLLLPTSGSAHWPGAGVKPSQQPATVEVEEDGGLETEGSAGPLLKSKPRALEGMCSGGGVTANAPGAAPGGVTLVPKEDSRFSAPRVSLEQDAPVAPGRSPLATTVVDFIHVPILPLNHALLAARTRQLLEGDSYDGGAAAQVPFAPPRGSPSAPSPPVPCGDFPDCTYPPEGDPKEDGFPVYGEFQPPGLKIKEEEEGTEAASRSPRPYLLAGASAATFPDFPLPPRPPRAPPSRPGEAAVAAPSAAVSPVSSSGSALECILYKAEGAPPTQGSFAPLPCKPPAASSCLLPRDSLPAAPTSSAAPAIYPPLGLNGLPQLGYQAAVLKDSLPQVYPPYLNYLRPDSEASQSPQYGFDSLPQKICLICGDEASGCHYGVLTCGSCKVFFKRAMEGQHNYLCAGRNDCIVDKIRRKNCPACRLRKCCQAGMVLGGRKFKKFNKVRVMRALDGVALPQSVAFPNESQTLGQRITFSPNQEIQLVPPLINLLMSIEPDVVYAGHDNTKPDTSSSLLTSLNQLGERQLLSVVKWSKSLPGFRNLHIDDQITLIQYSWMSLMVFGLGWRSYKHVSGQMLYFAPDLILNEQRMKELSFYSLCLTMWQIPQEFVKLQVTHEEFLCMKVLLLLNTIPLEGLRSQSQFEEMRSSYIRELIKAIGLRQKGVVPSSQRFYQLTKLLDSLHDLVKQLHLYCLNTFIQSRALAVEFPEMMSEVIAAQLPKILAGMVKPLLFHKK

Progesterone receptor = biological target: T2, Progesterone receptor (Rattus norvegicus, UniProt Q63449); assay: Inhibition of [3H]R5020 binding to cytosolic progesterone receptor (PRc) of rat uterus
T2 sequence (Q63449 whole entry): T1 sequence (whole entry)

| Structure (SMILES) | relative binding affinity (RBA) [1] | IC50 (Progesterone receptor) |
| --- | --- | --- |
| C[C@]12C=CC3=C4CCC(=O)C=C4CCC3C1CC[C@@]2(O)C(F)(F)F (some centres not stated) | 38.9 | 9 nM |
| C[C@]12CCC3=C4CCC(=O)C=C4CCC3C1CC[C@@]2(O)C(F)(F)F (some centres not stated) | 77.8 | 4.5 nM |
| CC#C[C@]1(O)CC[C@H]2[C@@H]3CCC4=CC(=O)CCC4=C3[C@@H](c3ccc(N(C)C)cc3)C[C@@]21C | 100 | – |
| C[C@]12CCC3C(CCC4=CC(=O)CC[C@@H]43)C1CC[C@@]2(O)C(F)(F)F (some centres not stated) | 292 | 1.2 nM |
